Molecular target: bee venom PLA2 (Apis mellifera, UniProt P00630)
Type: biochemical
Conditions: pH 9

Chain of bee venom PLA2 (P00630 34-167 limits assumed): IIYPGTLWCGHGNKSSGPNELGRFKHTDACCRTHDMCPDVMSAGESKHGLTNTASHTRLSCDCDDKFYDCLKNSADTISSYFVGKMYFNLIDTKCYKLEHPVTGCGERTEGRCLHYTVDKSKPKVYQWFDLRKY

| Structure (SMILES) | inhibition of the enzymatic activity of bee venom PLA2 |
| --- | --- |
| CCCCC/C=C\C/C=C\CCCCCCCC(=O)O [linoleic acid, linoleic (cis,cis-Δ^9-,Δ^12-octadecadienoic) acid] | inhibit the enzymatic activity of bee venom PLA2 in a dose-dependent manner |
| CCCCCCCC/C=C\CCCCCCCC(=O)O [oleic acid, oleic (cis-Δ^9-octadecenoic) acid] | inhibit the enzymatic activity of bee venom PLA2 in a dose-dependent manner |

— US20080096963A1, “Use Of A Fatty Acid For Preparing A Topical Composition For Allaying Inflammatory Reaction Due To Vennemous Hymenoptera Strings” (CEREP, priority 2004, published 2008)
